Values belong to the compound of their own block, whether it stands above or below them.
What was measured:
HepG2 cells = experiment: MTT antitumour assay, HepG2; assay type: cell-based; conditions: human hepato-cellular carcinoma cell line, mean ± SD, n = 3
Description: (§1) The evaluation of the antitumour activity was performed using tetrazolium salt MTT (3-(4,5-dimethyl-2-thiazolyl)-2,5-diphenyl-2H-tetrazolium bromide) assay as reported[62]^,[63].
(§2) The designed compounds were evaluated for their in vitro antitumour effects via the standard 3-(4,5-dimethylthiazol-2-yl)-2,5-diphenyltetrazolium bromide (MTT) method against a panel of four human tumour cell lines; namely, hepatocellular carcinoma cell line (HepG2), breast cancer cell line (MCF-7), human cervical cancer cell line (HeLa), and prostate cancer cell line (PC-3)[62]^,[63]^,[72]. The antitumour activities of the designed compounds 4–12, along with that of the reference drugs 5-FU and afatinib are shown in Table 1.

MCF-7 cells = experiment: MTT antitumour assay, MCF-7; assay type: cell-based; conditions: MCF7, human breast adenocarcinoma cell line, mean ± SD, n = 3
Description: as §1, §2

HeLa cells = experiment: MTT antitumour assay, HeLa; assay type: cell-based; conditions: human cervical epithelioid carcinoma cell line, mean ± SD, n = 3
Description: as §1
as §2, with “(PC-3)[62]^,[63]^,[72].” for “(PC-3)[62]^,[63]^,[72]. The antitumour activities of the designed compounds 4–12, along with that of the reference drugs 5-FU and afatinib are shown in Table 1.”

PC-3 cells = experiment: MTT antitumour assay, PC-3; assay type: cell-based; conditions: PC-3; MTT; human prostate cancer cell line; mean ± SD, n = 3
Description: as §1, §2

[1] = ABTS radical cation scavenging (antioxidant) assay; conditions: 20 µl of 1 mg/ml test sample (L-ascorbic acid 20 µl, 2 mM)
Description: The absorbance (Acontrol) of a green-blue solution (ABTS^+ radical solution) resulted from a mixture of ABTS and manganese dioxide (MnO2) and was recorded at λmax 734 nm, according to the reported procedure[64]^,[65]. The absorbance (Atest) was measured upon the addition of 20 µl of 1 mg/ml solution of the test sample in spectroscopic grade methanol/phosphate buffer (1:1 v/v) to the ABTS solution. The decrease in absorbance is expressed as % inhibition, which can be calculated from the following equation: % inhibition = Acontrol-Atest/Acontrol×100.
L-Ascorbic acid 20 µl (2 mM) solution was used as standard antioxidant (positive control). A blank sample was run using only methanol/phosphate buffer (1:1), while the negative control was run with ABTS and the methanol/phosphate buffer.
The assay is based on measuring the ability of the tested compounds to scavenge the long-life radical cation of ABTS[22]^,[43]^,[64]^,[65].

[2] = tested on: HepG2, MCF-7, HeLa, and PC-3 cancer cell lines; experiment: MTT antitumour assay, range over the four cell lines; assay type: cell-based, human; conditions: Homo sapiens, range over HepG2, MCF-7, HeLa, PC-3 (and over the compounds named), read-out: IC50 range against the tested cell lines
Description: as §1, §2

EGFR kinase = EGFR kinase (Homo sapiens, UniProt P00533); experiment: ELISA-based EGFR kinase inhibition assay; conditions: for Conc. (Average), ELISA read-out: duplicate wells, standards in ng/ml, cont 134.9
Sequence of EGFR kinase (P00533 25-1210): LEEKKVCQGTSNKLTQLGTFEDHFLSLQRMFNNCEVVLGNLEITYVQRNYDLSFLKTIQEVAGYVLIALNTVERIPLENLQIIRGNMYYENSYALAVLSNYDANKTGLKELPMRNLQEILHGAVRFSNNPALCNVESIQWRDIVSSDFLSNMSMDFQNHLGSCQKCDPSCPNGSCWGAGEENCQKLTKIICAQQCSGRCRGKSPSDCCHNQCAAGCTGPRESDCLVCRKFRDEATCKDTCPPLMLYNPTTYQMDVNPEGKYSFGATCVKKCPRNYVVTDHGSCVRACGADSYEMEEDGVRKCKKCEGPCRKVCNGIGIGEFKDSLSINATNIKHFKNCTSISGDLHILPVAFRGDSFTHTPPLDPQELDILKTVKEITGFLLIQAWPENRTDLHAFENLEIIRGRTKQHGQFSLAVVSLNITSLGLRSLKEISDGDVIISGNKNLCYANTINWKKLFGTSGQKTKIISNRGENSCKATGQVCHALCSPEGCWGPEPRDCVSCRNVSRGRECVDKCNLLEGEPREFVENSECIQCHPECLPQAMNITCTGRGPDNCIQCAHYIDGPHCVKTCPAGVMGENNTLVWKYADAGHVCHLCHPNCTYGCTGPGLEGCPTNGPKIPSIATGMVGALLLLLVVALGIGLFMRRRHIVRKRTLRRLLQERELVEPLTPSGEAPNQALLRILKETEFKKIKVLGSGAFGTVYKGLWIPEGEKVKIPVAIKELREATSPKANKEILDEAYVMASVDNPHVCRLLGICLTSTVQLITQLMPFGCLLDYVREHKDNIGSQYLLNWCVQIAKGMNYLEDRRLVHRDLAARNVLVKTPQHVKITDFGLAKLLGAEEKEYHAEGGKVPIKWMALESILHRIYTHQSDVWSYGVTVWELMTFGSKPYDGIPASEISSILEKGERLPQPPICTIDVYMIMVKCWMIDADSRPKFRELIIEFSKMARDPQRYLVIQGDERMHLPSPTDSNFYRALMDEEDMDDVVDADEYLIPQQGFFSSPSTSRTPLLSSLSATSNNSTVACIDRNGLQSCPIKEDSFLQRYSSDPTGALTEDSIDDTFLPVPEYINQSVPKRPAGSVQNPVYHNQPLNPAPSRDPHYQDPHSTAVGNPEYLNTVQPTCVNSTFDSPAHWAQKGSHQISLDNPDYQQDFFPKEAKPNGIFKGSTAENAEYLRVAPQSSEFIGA

SMILES: CC(=O)C=Cc1ccc(OC2CCCC2)cc1 [4a, 4-(4-(Cyclopentyloxy)phenyl)but-3-en-2-one]
- IC50 (HepG2 cells): 27.3 ± 1.96 µM
- IC50 (MCF-7 cells): 40.9 ± 2.79 µM
- IC50 (HeLa cells): 25.7 ± 1.97 µM
- IC50 (PC-3 cells): 21.8 ± 1.68 µM
- %Inhibition of the ABTS radical cation [1]: 52.0%
- IC50 [2]: 21.8 to 40.9 µM

SMILES: O=C1CCCC1=Cc1ccc(OC2CCCC2)cc1 [5a, 2-(4-(Cyclopentyloxy)benzylidene)cyclopentanone]
- IC50 (HepG2 cells): > 100 µM
- IC50 (MCF-7 cells): > 100 µM
- IC50 (HeLa cells): 77.8 ± 4.41 µM
- IC50 (PC-3 cells): 94.1 ± 5.82 µM

SMILES: O=C1CCCCC1=Cc1ccc(OC2CCCC2)cc1 [5b, 2-(4-(Cyclopentyloxy)benzylidene)cyclohexanone]
- IC50 (HepG2 cells): 55.4 ± 3.95 µM
- IC50 (MCF-7 cells): 49.4 ± 3.16 µM
- IC50 (HeLa cells): 30.1 ± 2.24 µM
- IC50 (PC-3 cells): 71.1 ± 4.93 µM
- %Inhibition of the ABTS radical cation [1]: 51.4%

SMILES: O=C1CCCCCC1=Cc1ccc(OC2CCCC2)cc1 [5c, 2-(4-(Cyclopentyloxy)benzylidene)cycloheptanone]
- IC50 (HepG2 cells): 71.3 ± 4.53 µM
- IC50 (MCF-7 cells): 64.7 ± 4.27 µM
- IC50 (HeLa cells): 37.5 ± 2.81 µM
- IC50 (PC-3 cells): 26.9 ± 1.89 µM
- %Inhibition of the ABTS radical cation [1]: 51.0%

These reach a lower IC50 (HepG2 cells). Values come first.

- IC50 (HepG2 cells): 20 ± 1.11 µM
- IC50 (MCF-7 cells): 36.4 ± 2.6 µM
- IC50 (HeLa cells): 18.8 ± 1.57 µM
- IC50 (PC-3 cells): 17.1 ± 1.58 µM
SMILES: Cc1ccc(C(=O)C=Cc2ccc(OC3CCCC3)cc2)cc1 [4b, 3-(4-(Cyclopentyloxy)phenyl)-1-(4-methylphenyl)prop-2-en-1-one]
- %Inhibition of the ABTS radical cation [1]: 52.6%

- IC50 (HepG2 cells): 7.9 ± 0.17 µM
- IC50 (MCF-7 cells): 5.4 ± 0.2 µM
- IC50 (HeLa cells): 4.8 ± 0.21 µM
- IC50 (PC-3 cells): 8.3 ± 0.35 µM
- IC50 [2]: 4.8 to 8.3 µM
SMILES: O=c1[nH]cc(F)c(=O)[nH]1 [5-FU, 5-fluorouracil, reference compound]

- IC50 (HepG2 cells): 15.9 ± 1.02 µM
- IC50 (MCF-7 cells): 18.1 ± 1.58 µM
- IC50 (HeLa cells): 9.4 ± 0.98 µM
- IC50 (PC-3 cells): 10.5 ± 0.97 µM
- IC50 [2]: 5.5 to 18.1 µM
- IC50 (EGFR kinase): 4.66 µM
- % Inhibition EGFR (EGFR kinase; 0.15 μM): 6.67%
- % Inhibition EGFR (EGFR kinase; 0.31 μM): 18.16%
- % Inhibition EGFR (EGFR kinase; 0.625 μM): 26.84%
- % Inhibition EGFR (EGFR kinase; 1.25 μM): 34.55%
- % Inhibition EGFR (EGFR kinase; 2.5 μM): 44.35%
- % Inhibition EGFR (EGFR kinase; 5.0 μM): 50.34%
- % Inhibition EGFR (EGFR kinase; 10.0 μM): 57.65%
- inhibition at 0.15 µM (EGFR kinase; read-out: % Inhibition EGFR, 0.15 μM): 6.67%
- inhibition at 0.31 µM (EGFR kinase; read-out: % Inhibition EGFR, 0.31 μM): 18.2%
- inhibition at 0.625 µM (EGFR kinase; read-out: % Inhibition EGFR, 0.625 μM): 26.8%
- inhibition at 1.25 µM (EGFR kinase; read-out: % Inhibition EGFR, 1.25 μM): 34.6%
- inhibition at 2.5 µM (EGFR kinase; read-out: % Inhibition EGFR, 2.5 μM): 44.4%
- inhibition at 5 µM (EGFR kinase; read-out: % Inhibition EGFR, 5.0 μM): 50.3%
- inhibition at 10 µM (EGFR kinase; read-out: % Inhibition EGFR, 10.0 μM): 57.7%
- Conc. (Average), ELISA read-out (EGFR kinase; sample at 0.15uM): 125.9
- Conc. (Average), ELISA read-out (EGFR kinase; sample at 0.31uM): 110.4
- Conc. (Average), ELISA read-out (EGFR kinase; sample at 0.62uM): 98.68
- Conc. (Average), ELISA read-out (EGFR kinase; sample at 1.25uM): 88.29
- Conc. (Average), ELISA read-out (EGFR kinase; sample at 2.5uM): 75.07
- Conc. (Average), ELISA read-out (EGFR kinase; sample at 5uM): 66.98
- Conc. (Average), ELISA read-out (EGFR kinase; sample at 10uM): 57.13
SMILES: CN1CCC(=O)C(=Cc2ccc(OC3CCCC3)cc2)C1 [6a, 3-(4-(Cyclopentyloxy)benzylidene)-1-methylpiperidin-4-one]
- %Inhibition of the ABTS radical cation [1]: 54.3%

From PMC6010098, “Synthesis, antitumour and antioxidant activities of novel α,β-unsaturated ketones and related heterocyclic analogues: EGFR inhibition and molecular modelling study” (Journal of Enzyme Inhibition and Medicinal Chemistry, 2018)
